Test results as given in patent US20050250677A1, “Glycopeptide antibiotic derivatives” (priority 2002, published 2005).
Like-named read-outs stand apart in the source and are kept apart here.

Experiments:
[1] = system: HEL cells; details: read-out: CC50 (HEL)
[2] = system: HSV-1 (KOS); assay: Anti-HSV-1 assay: virus-induced cytopathicity in HEL cell cultures
[3] = system: HSV-2 (G); assay: Anti-HSV-2 assay: virus-induced cytopathicity in HEL cell cultures
[4] = system: VZV (wild-type strains); assay: Anti-VZV assay (wild-type strains): virus-induced cytopathicity in HEL cell cultures; format: cell-based, varicella-zoster virus; details: for EC50: HEL cell cultures
[5] = system: HEL cells
[6] = system: CMV; assay: Anti-CMV assay: virus-induced cytopathicity in HEL cell cultures
[7] = system: HIV-1 (IIIB); assay: Inhibition of HIV-1 (IIIB)-induced cytopathicity (giant cell formation) in CEM cells; format: cell-based
Description: (§1) A variety of glycopeptide antibiotic derivatives of vancomycin, eremomycin and teicoplanin including their aglycon derivatives were evaluated for their inhibitory activity against HIV-1 (IIIB) and HIV-2(ROD) in CEM cell cultures.

[8] = system: HIV-2(ROD); assay: Inhibition of HIV-2 (ROD)-induced cytopathicity (giant cell formation) in CEM cells; format: cell-based; details: read-out: EC50 HIV-2 (concentration required to inhibit HIV-induced giant cell formation by 50%); HIV-2, CEM cell cultures
Description: as §1

[9] = system: HIV-1(HE); assay: Inhibition of HIV-1 (HE)-induced cytopathicity in MOLT4/C8 cells; format: cell-based
[10] = system: HIV-1 (HE); assay: Inhibition of HIV-1 (HE)-induced cytopathicity in CEM/0 cells; format: cell-based
[11] = system: HIV-2 (EHO); details: read-out: EC50 CEM/0 HIV-2 (EHO); CEM/0 cells
Description: (§2) Inhibition of HIV-1 (IIIB, HE, HN) and HIV-2(ROD, EHO, RF)-induced cytopathicity in CEM or C8166 or Molt4/C8 cells was measured in microtiter 96-well plates containing ˜3×10^5 CEM cells/ml, infected with 100 CCID50 of HIV per ml and containing appropriate dilutions of the test compounds. After 4 to 5 days of incubation at 37° C. in a CO2-controlled humidified atmosphere, CEM, C8166 or Molt4/C8 giant (syncytium) cell formation was examined microscopically.

[12] = system: HIV-2 (RF); details: read-out: EC50 CEM/0 HIV-2 (RF); CEM/0 cells
Description: as §2

[13] = system: HIV-1 (MN); assay: Inhibition of HIV-1 (MN)-induced cytopathicity in CEM/0 cells; format: cell-based
[14] = system: mutant HIV-1 strain Lys-103-Asn; assay: Anti-HIV-1 activity against mutant HIV-1 strain Lys-103-Asn in CEM cultures; format: cell-based
[15] = system: murine leukemia L1210; assay: Cytostatic activity assay, L1210 cells; format: cell-based; details: read-out: IC50 L1210 (compound concentration required to inhibit tumor cell proliferation by 50%)
[16] = system: human lymphocyte Molt4/clone 8; assay: Cytostatic activity assay, Molt4/clone 8 cells; format: cell-based; details: read-out: IC50 Molt4/C8 (compound concentration required to inhibit tumor cell proliferation by 50%)
[17] = system: human lymphocyte CEM; assay: Cytostatic activity assay, CEM cells; format: cell-based; details: read-out: IC50 CEM (compound concentration required to inhibit tumor cell proliferation by 50%)
[18] = system: mutant HIV-1 strain Leu-100-Ile; assay: Anti-HIV-1 activity against mutant HIV-1 strain Leu-100-Ile in CEM cultures; format: cell-based
[19] = system: mutant HIV-1 strain Tyr-181-Cys; assay: Anti-HIV-1 activity against mutant HIV-1 strain Tyr-181-Cys in CEM cultures; format: cell-based
[20] = system: mutant HIV-1 strain Tyr-188-His; assay: Anti-HIV-1 activity against mutant HIV-1 strain Tyr-188-His in CEM cultures; format: cell-based
Description: as §2

[21] = system: FCV; assay: Feline corona virus assay in Feline Crandel kidney cells (MTS); format: cell-based; details: FCV in FCK cells; read-out: EC50 FCV
Description: Feline Crandel kidney cells were seeded in 96-well microtiter plates at 24,000 cells/well. Then, 24 hrs later, an appropriate inoculum of FCV is added together with 5-fold dilutions of the test compounds. After 4 days, a MTS/PMS solution was added to each well. Following a 90 min incubation period at 37° C., the optical density of the wells was read at 498 nm in a microplate reader.

[22] = system: SARS virus (strain Frankfurt-1); assay: microbe, parasite or virus in culture; format: cell-based, human corona (SARS) virus; details: SARS virus in Vero cells; read-out: EC50 SARS virus
[23] = system: FCK cells; details: read-out: CC50 FCK; FCK cells
[24] = system: Vero cells; details: read-out: CC50 Vero
[25] = read-out: EC50 HSV-1 (KOS), HEL cell cultures
[26] = read-out: EC50 HSV-2 (G), HEL cell cultures
[27] = VZV strain OKA, read-out: EC50 VZV (OKA)
[28] = read-out: EC50 CMV AD-169, CMV strain AD-169, HEL cell cultures
[29] = VZV strain YS, read-out: EC50 VZV (YS)
[30] = CEM cultures, wild type in mutant panel, read-out: EC50 HIV-1 IIIB
[31] = CEM/0 cells, read-out: EC50 CEM/0 HIV-1 (IIIB)
[32] = read-out: EC50 HIV-1 (concentration required to inhibit HIV-induced giant cell formation by 50%), HIV-1, CEM cell cultures

| Compound | CC50 ([1]; HEL cell proliferation) [µM] | EC50 [2, 25] [µM] | EC50 [3, 26] [µM] | EC50 [4, 27] [µM] | MTC (HEL) [5] | MTC (HEL) ([5]; anti-VZV table) | CC50 ([1]; HEL cells, anti-VZV table) [µM] | EC50 [4, 29] [µM] | EC50 [7, 32] [µM] | EC50 [8] [µM] | IC50 [15] [µM] | IC50 [16] [µM] | IC50 [17] [µM] | further results |
| --- | --- | --- | --- | --- | --- | --- | --- | --- | --- | --- | --- | --- | --- | --- |
| Ristosaminylaglycon of ristomycin [Compound 88] | > 50 | 120 | > 200 | – | – | – | – | – | – | – | – | – | – | – |
| CCCCc1ccc(CNCc2c(O)cc3c(c2O)-c2cc(ccc2O)C2NC(=O)C4NC(=O)C5NC(=O)C(Cc6ccc(c(Cl)c6)Oc6cc4cc(c6O)Oc4ccc(cc4Cl)C(O)C(NC2=O)C(=O)NC3C(=O)O)NC(=O)C(NC(=O)OC(C)(C)C)c2ccc(O)c(c2)Oc2cc(O)cc5c2)cc1 (stereo not shown) [Compound 146] | > 50 | 9.6 | 9.6 | 2.5 | ≧5-50 μM | ≧5-50 μM | > 50 | – | – | – | – | – | – | MTC (HEL) ([5]; anti-CMV table): ≧5-50 μM; CC50 ([1]; HEL cells, anti-CMV table): > 50 µM; EC50 [6, 28]: > 20 µM; activity against HSV-1 [2]: activity; activity against HSV-2 [3]: activity |
| CN(Cc1ccc(Cl)cc1)Cc1c(O)cc2c(c1O)-c1cc(ccc1O)C1NC(=O)C3NC(=O)C4NC(=O)C(Cc5ccc(c(Cl)c5)Oc5cc3cc(c5O)Oc3ccc(cc3Cl)C(O)C(NC1=O)C(=O)NC2C(=O)O)NC(=O)C(N)c1ccc(O)c(c1)Oc1cc(O)cc4c1 (stereo not shown) [Compound 115] | 50 | 80 | > 16 | > 5 | ≧20-200 μM | ≧20-200 μM | 50 | 8.9 | – | – | – | – | – | – |
| CNC(CC(C)C)C(=O)NC1C(=O)NC(CC(N)=O)C(=O)NC2C(=O)NC3C(=O)NC(C(=O)NC(C(=O)O)c4cc(O)c(CN5CCN(Cc6ccc(-c7ccccc7)cc6)CC5)c(O)c4-c4cc3ccc4O)C(O)c3ccc(cc3)Oc3cc2cc(c3O)Oc2ccc(cc2Cl)C1O (stereo not shown) [Compound 6] | – | – | – | 4.2 | – | ≧20-200 μM | > 50 | – | 5.5 ± 0.7 | 12 ± 3.5 | 250 ± 39 | > 500 | > 500 | EC50 [7, 30]: 5.5 ± 0.7 µM; EC50 [7, 31]: 5.5 ± 0.7 µM; EC50 [9]: 22 ± 2.9 µM; EC50 [10]: 40 µM; EC50 [11]: 50 µM; EC50 [12]: 16 ± 5.7 µM; EC50 [13]: 20 µM; EC50 [14]: 11 ± 1.4 µM; activity against VZV [4]: pronounced activity |
| CNC(=O)C1NC(=O)C2NC(=O)C(NC(=O)C3NC(=O)C4NC(=O)C(Cc5ccc(c(Cl)c5)Oc5cc3cc(c5O)Oc3ccc(cc3Cl)C2O)NC(=O)C(N)c2ccc(O)c(c2)Oc2cc(O)cc4c2)c2ccc(O)c(c2)-c2c1cc(O)c(CNC1C3CC4CC(C3)CC1C4)c2O (stereo not shown) [Compound 51] | – | – | – | – | – | – | – | – | 5 ± 1.4 | 17 ± 3.5 | 212 ± 54 | > 250 | > 250 | EC50 [7, 30]: 5 ± 1.4 µM; EC50 [7, 31]: 5 ± 1.4 µM; EC50 [9]: 25 ± 5 µM; EC50 [10]: 40 µM; EC50 [11]: 13 ± 6.6 µM; EC50 [12]: 9 ± 4.2 µM; EC50 [13]: 25 ± 7.1 µM; EC50 [18]: 24 ± 6.3 µM; EC50 [14]: 12 µM; EC50 [19]: 9.5 ± 2.1 µM; EC50 [20]: 11 ± 6.4 µM; EC50 [21]: 15 µM; EC50 [22]: 39 µM; CC50 [23]: ≥ 100 µM; CC50 [24]: > 100 µM |
| CCCCCCCCCC(=O)N1CCN(C(=O)C2NC(=O)C3NC(=O)C(NC(=O)C4NC(=O)C5NC(=O)C(Cc6ccc(c(Cl)c6)Oc6cc4cc(c6O)Oc4ccc(cc4Cl)C3O)NC(=O)C(N)c3ccc(O)c(c3)Oc3cc(O)cc5c3)c3ccc(O)c(c3)-c3c(O)cc(O)cc32)CC1 (stereo not shown) [Compound 40] | > 50 | 9.6 | 9.6 | 0.29 | ≧5-20 μM | ≧5-20 μM | > 50 | 0.21 | 1.5 ± 0.7 | 4.5 ± 2.1 | 38.7 ± 3.4 | 32.3 | 44 ± 0.42 | – |
| CCCCOc1ccc(CNCCOc2c3cc4cc2Oc2ccc(cc2Cl)C(O)C2NC(=O)C(NC(=O)C4NC(=O)C4NC(=O)C(Cc5ccc(c(Cl)c5)O3)NC(=O)C(NCc3ccc(OCCCC)cc3)c3ccc(O)c(c3)Oc3cc(O)cc4c3)c3ccc(O)c(c3)-c3c(O)cc(O)cc3C(C(=O)O)NC2=O)cc1 (stereo not shown) [Compound 132] | 40 | 9.6 | 9.6 | 0.97 | ≧5-20 μM | ≧5-20 μM | 40 | – | – | – | – | – | – | activity against HSV-1 [2]: activity; activity against HSV-2 [3]: activity |
| CC1(C)SC2C(NC(=O)C3NC(=O)C4NC(=O)C(NC(=O)C5NC(=O)C6NC(=O)C(Cc7ccc(c(Cl)c7)Oc7cc5cc(c7O)Oc5ccc(cc5Cl)C4O)NC(=O)C(N)c4ccc(O)c(c4)Oc4cc(O)cc6c4)c4ccc(O)c(c4)-c4c(O)cc(O)cc43)C(=O)N2C1C(=O)O (stereo not shown) [Compound 145] | > 50 | 48 | 48 | 3.9 | – | – | > 50 | 2.8 | – | – | – | – | – | – |
| CCCCOc1ccc(CN2CCN(C(=O)C3NC(=O)C4NC(=O)C(NC(=O)C5NC(=O)C6NC(=O)C(Cc7ccc(c(Cl)c7)Oc7cc5cc(c7O)Oc5ccc(cc5Cl)C4O)NC(=O)C(N)c4ccc(O)c(c4)Oc4cc(O)cc6c4)c4ccc(O)c(c4)-c4c(O)cc(O)cc43)CC2)cc1 (stereo not shown) [Compound 125] | – | – | – | 0.32 | – | ≧2-20 μM | 44 | 0.25 | – | – | – | – | – | EC50 [21]: 1.6 µM; EC50 [22]: 10 µM; MTC (HEL) ([5]; anti-CMV table): ≧2-20 μM; CC50 ([1]; HEL cells, anti-CMV table): 44 µM; CC50 [23]: 14 µM; CC50 [24]: > 100 µM; anti-CMV activity [6]: anti-CMV activity; EC50 [6, 28]: 1.9 µM; EC50 ([6]; read-out: EC50 CMV Davis, CMV strain Davis, HEL cell cultures): 2.8 µM |
| CC(C)CC(C(=O)NC1C(=O)NC(CC(N)=O)C(=O)NC2C(=O)NC3C(=O)NC(C(=O)NC(C(=O)O)c4cc(O)c(CN5CCN(Cc6ccc(-c7ccccc7)cc6)CC5)c(O)c4-c4cc3ccc4O)C(O)c3ccc(cc3)Oc3cc2cc(c3O)Oc2ccc(cc2Cl)C1O)N(C)C(=O)OC(C)(C)C (stereo not shown) [Compound 98] | > 50 | – | – | 2.3 | ≧20-200 μM | ≧20-200 μM | > 50 | 1.3 | – | – | – | – | – | activity against VZV [4]: pronounced activity; EC50 ([2]; read-out: EC50 HSV-1): 24 µM; EC50 ([3]; read-out: EC50 HSV-2): 24 µM |
| CCCCc1ccc(CNCC(=O)N2CCN(C(=O)C3NC(=O)C4NC(=O)C(NC(=O)C5NC(=O)C6NC(=O)C(Cc7ccc(c(Cl)c7)Oc7cc5cc(c7O)Oc5ccc(cc5Cl)C4O)NC(=O)C(N)c4ccc(O)c(c4)Oc4cc(O)cc6c4)c4ccc(O)c(c4)-c4c(O)cc(O)cc43)CC2)cc1 (stereo not shown) [Compound 46] | – | – | – | 0.81 | – | 20 to 80 µM | > 50 | – | 4 | 7 ± 4.2 | > 100 | > 100 | > 100 | EC50 [7, 30]: 4 µM; EC50 [7, 31]: 4 µM; EC50 [9]: 6.5 ± 4.3 µM; EC50 [10]: 35 ± 7.1 µM; EC50 [11]: 35 ± 7.1 µM; EC50 [12]: 10 µM; EC50 [13]: 9 ± 1.4 µM; EC50 [14]: 17 ± 4.2 µM; EC50 [19]: 8 µM |
